Experimental data from patent US20250320254A1, “Compositions and Methods for Modulating Circulating Factors” (Flagship Pioneering Innovations VII, LLC, priority 2022, published 2025).
No end group written: not given here.

Test system: human primary hepatocytes
Assay: LDL uptake assay (BODIPY-labelled LDL, high content imaging)
Assay type: cell-based
Conditions: 5 uM concentration, 4 h
Protocol: The effects of putative cholesterol lowering peptides was assessed using LDL uptake assays in primary human hepatocytes from a pool of 10 healthy donors. Hepatocytes were treated with peptides as well as LDL-labelled BODIPY for 4 h. Cells were then fixed, permeabilized and imaged on an Opera Phenix high content imaging platform. LDL uptake was determined using BODIPY stain intensity.
Human primary hepatocytes were seeded into 96-well PhenoVue plates at 37K/well density and recovered overnight. The next say, hepatocytes were treated with 5 uM peptide or null control (DMSO) as well as a BODIPY-labelled LDL (Invitrogen™ Image-iT™ Low Density Lipoprotein Uptake Kit, Bodipy FL, I34359). This assay is designed to specifically detect binding and uptake of LDL through the LDL receptor internalization pathway, allowing maximum control and flexibility in experimental design. Two controls were built into the system, unlabeled LDL and heparin. Unlabeled LDL provides an optional pre-treatment to occlude cell surface receptors in advance of probing with the labeled construct, while heparin is provided as an additional control to chelate the LDL in the solution phase outside of the cells, thus preventing binding and uptake of the labeled LDL. Metformin, a type 2 diabetes drug with cholesterol lowering effects, was used as a positive control for increased LDL uptake (FIG. 1). Following peptide, control, and LDL-BODIPY treatment, cells were incubated for 4 h in a 37 C incubator with 5% CO2. Following incubation, cells were fixed with 4% paraformaldehyde for 15 min. Cells were then permeabilized and stained with DAPI to visualize nuclei. Wells were then washed with HBSS and imaged using a Perkin Elmer Opera Phenix high content imaging platform (fluorescence) at 20× magnification with 9 fields per well. BODIPY spot intensity was quantified using the Harmony image analysis software.

| LDL uptake in hepatocytes | Sequence |
| --- | --- |
| increasing LDL uptake | MTAAVSLTRSPAISASCAASRSASPWAWPWTWF [SEQ ID NO: 75353] |
| increasing LDL uptake | LVVRWAVLVFRSSTAALPRAAEAARRSEKWPKTSALGRRS [SEQ ID NO: 26888] |
| increasing LDL uptake | MMLPLWTFLERAMLLLISEVANRFKWSNGYTWKMPKA [SEQ ID NO: 36277] |
